Assay results as given in US11730746B2, “17beta-heterocyclyl-digitalis like compounds for the treatment of heart failure” (priority 2018, dated 2023).
Where two headings read alike, the source gives them in different places. Marks after values point to notes of the source that are not given here.

Tests used:
dog renal Na,K-ATPase = target: T1, dog renal Na,K-ATPase (Canis lupus familiaris, UniProt P50997); assay: Inhibition of dog renal Na,K-ATPase activity (32P-ATP release); format: biochemical
T1 construct: incubated with 0.3 μg of purified dog kidney enzyme; from tissue; host or cells: dog kidney outer medulla
Experimental: Kidneys were sliced and the outer medulla was dissected, pooled and suspended (1 g/10 ml) in a sucrose-histidine solution, containing 250 mM sucrose, 30 mM histidine and 5 mM EDTA, pH 7.2 and homogenized. […] The pellet was suspended in the sucrose-histidine buffer and incubated for 20 min with a sodium-dodecyl-sulphate (SDS) solution dissolved in a gradient buffer, containing 25 mM imidazole and 1 mM EDTA, pH 7.5. […] The pellet was suspended in the gradient buffer.
Increasing concentrations of the standard ouabain, or tested compound, were incubated with 0.3 μg of purified dog kidney enzyme for 10 min at 37° C. in 120 μl final volume of a medium, containing 140 mM NaCl, 3 mM MgCl2, 50 mM Hepes-Tris, 3 mM ATP, pH 7.5. […] The inhibitory activity was expressed as percent of the control samples carried out in the absence of ouabain or tested compound.

SERCA2a = target: T2, SERCA2a (Canis lupus familiaris, UniProt O46674); assay: SERCA2a ATPase activity in heart-derived SR microsomes from normal dog; format: biochemical; conditions: for Vmax (SERCA2a ATPase activity): mean ± SD
T2 construct: pre-incubated with 2 μg of microsomes; from tissue; host or cells: dog heart left ventricle, SR microsomes
T2 sequence (O46674 whole entry): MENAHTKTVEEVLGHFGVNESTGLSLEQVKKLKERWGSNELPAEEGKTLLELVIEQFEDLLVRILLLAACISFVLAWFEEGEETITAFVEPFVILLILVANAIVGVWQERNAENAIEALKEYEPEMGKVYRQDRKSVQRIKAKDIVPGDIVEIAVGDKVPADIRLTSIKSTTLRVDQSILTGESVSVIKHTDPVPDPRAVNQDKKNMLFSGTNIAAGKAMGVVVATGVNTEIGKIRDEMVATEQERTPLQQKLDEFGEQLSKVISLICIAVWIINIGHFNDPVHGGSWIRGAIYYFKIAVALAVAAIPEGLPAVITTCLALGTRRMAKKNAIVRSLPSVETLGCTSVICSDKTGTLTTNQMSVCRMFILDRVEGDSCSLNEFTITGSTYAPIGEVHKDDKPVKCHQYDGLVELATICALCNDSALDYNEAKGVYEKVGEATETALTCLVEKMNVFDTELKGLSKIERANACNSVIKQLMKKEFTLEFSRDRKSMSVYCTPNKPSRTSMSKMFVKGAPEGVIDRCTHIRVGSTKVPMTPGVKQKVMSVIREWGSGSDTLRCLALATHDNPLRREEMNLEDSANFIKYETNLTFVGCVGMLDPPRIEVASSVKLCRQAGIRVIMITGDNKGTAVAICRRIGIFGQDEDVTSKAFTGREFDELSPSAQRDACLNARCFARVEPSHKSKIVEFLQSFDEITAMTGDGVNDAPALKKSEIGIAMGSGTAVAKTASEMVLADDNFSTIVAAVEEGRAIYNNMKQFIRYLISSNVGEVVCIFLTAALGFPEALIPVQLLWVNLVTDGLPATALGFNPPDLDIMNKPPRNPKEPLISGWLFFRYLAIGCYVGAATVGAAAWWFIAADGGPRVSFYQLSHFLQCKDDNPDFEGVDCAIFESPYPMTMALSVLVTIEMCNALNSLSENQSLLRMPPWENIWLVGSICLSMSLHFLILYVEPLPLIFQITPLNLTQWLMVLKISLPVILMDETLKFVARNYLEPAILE
Experimental: Left ventricle tissues were dissected, homogenized in 4 volumes of 10 mM NaHCO3, pH 7, 1 mM PMSF, 10 μg/ml Aprotinin and Leupeptin and centrifuged at 12,000 g for 15 minutes, as published (Nediani C. et al. J Biol Chem. 1996; 271:19066-73). Supernatants were filtered and centrifuged at 100,000 g for 30 min. Contractile proteins were extracted by suspending the pellets with 0.6 M KCl, 30 mM Histidine, pH 7 and further centrifugation at 100,000 g for 30 min. Final pellets were reconstituted with 0.3 M Sucrose, 30 mM Histidine, pH 7.
SERCA2a activity was measured “in vitro” as ^32P-ATP hydrolysis at different Ca^2+ concentrations (100-4000 nM) in the absence and presence of the tested compounds, as described (Micheletti R. et al. Am J Card 2007; 99:24A-32A). Increasing concentrations of each compound (from 1 to 100 nM) were pre-incubated with 2 μg of microsomes for 5 min at 4° C. in 80 μl of a solution containing 100 mM KCl, 5 mM MgCl2, 1 μM A23187, 20 mM Tris, pH 7.5. Then, 20 μl of 5 mM Tris-ATP containing 50 nCi of ^32P-ATP (3-10 Ci/mmol, Perkin Elmer) were added. The ATP hydrolysis was continued for 15 min at 37° C. and the reaction was stopped by acidification with 100 μl of 20% v/v ice-cold perchloric acid. ^32P was separated by centrifugation with activated charcoal (Norit A, SERVA) and the radioactivity was measured. SERCA2a-dependent activity was identified as the portion of total hydrolytic activity inhibited by 10 μM cyclopiazonic acid (Seidler N W. et al. J Biol Chem. 1989; 264:17816-23).
Dose-response curves were fitted by using a sigmoidal curve fitting software and the maximal velocity (Vmax) activity and the Kd Ca^2+ were calculated (Synergy Software KaleidaGraph 3.6).

[1] = purified dog kidney enzyme, read-out: IC50, inhibition of dog renal Na,K-ATPase

Row | Structure (SMILES) | IC50 (dog renal Na,K-ATPase) [µM] | % increase vs Control (SERCA2a Vmax) (SERCA2a; compound 10 nM) | Vmax (SERCA2a ATPase activity) (SERCA2a; compound 10 nM) | % increase vs Control (SERCA2a Vmax) (SERCA2a; compound 100 nM) [%*] | Vmax (SERCA2a ATPase activity) (SERCA2a; compound 100 nM) | IC50 (dog renal Na,K-ATPase; [1]) [µM] | % increase vs Control (SERCA2a Vmax) (SERCA2a; compound 1 nM) | Vmax (SERCA2a ATPase activity) (SERCA2a; compound 1 nM)
1 | C[C@]12CC[C@H](O)C[C@H]1CCC1C2CC[C@]2(C)[C@@H](c3cc[nH]n3)CC[C@]12O (stereo partly drawn) [CVie 103, 3β-hydroxy-5β-10β-methyl-13β-methyl-14β-hydroxy-17β-(pyrazol-3-yl)androstane] | 4 | 11%* | 2.569 ± 0.278 (n = 7) μmol/min/mg prot | 16 | 2.688 ± 0.285 (n = 7) μmol/min/mg prot |  |  | 
2 | C[C@]12[C@H](O)CC3C(CC[C@@H]4C[C@@H](O)CC[C@]34C)[C@@]1(O)CC[C@@H]2c1c[nH]cn1 (stereo partly drawn) [CVie 104, 3β-hydroxy-5β-10β-methyl-12β-hydroxy-13β-methyl-14β-hydroxy-17β-(imidazol-4-yl)androstane] |  | 20%* | 1.551 ± 0.275 (n = 4) μmol/min/mg prot |  |  | 1.61 | 11%* | 1.437 ± 0.158 (n = 4) μmol/min/mg prot
3 | C[C@]12[C@H](O)CC3C(CC[C@@H]4C[C@@H](O)CC[C@]34C)[C@@]1(O)CC[C@@H]2c1csc(N=C(N)N)n1 (stereo partly drawn) [CVie 105, 3β-hydroxy-5β-10β-methyl-12β-hydroxy-13β-methyl-14β-hydroxy-17β-(2-guanidino-thiazol-4-yl)androstane] | 0.53 |  |  |  |  |  |  | 
4 | C[C@]12CC[C@H](O)C[C@H]1CCC1C2CC[C@]2(C)[C@@H](c3cn(CCCN)cn3)CC[C@]12O (stereo partly drawn) [CVie 106, 3β-hydroxy-5β-10β-methyl-13β-methyl-14β-hydroxy-17β-(N-(3-aminopropyl)-imidazol-4-yl)androstane] |  | 15% | 2.935 ± 0.403 (n = 3) μmol/min/mg prot |  |  | 10 | 22% * | 3.113 ± 0.157 (n = 3) μmol/min/mg prot
5 | C[C@]12CC[C@H](O)C[C@H]1CCC1C2CC[C@]2(C)[C@@H](c3cc(CCCN)on3)CC[C@]12O (stereo partly drawn) [CVie 107, 3β-hydroxy-5β-10β-methyl-13β-methyl-14β-hydroxy-17β-((5-(3-aminopropyl)-isoxazol-3-yl))androstane] |  | 7% | 2.508 ± 0.339 (n = 3) μmol/min/mg prot | 17 | 2.751 ± 0.171 (n = 3) μmol/min/mg prot | 0.15 |  | 
6 | C[C@]12CC[C@H](O)C[C@H]1CCC1C2CC[C@]2(C)[C@@H](CCc3cc(CCCN)on3)CC[C@]12O (stereo partly drawn) [CVie 108, 3β-hydroxy-5β-10β-methyl-13β-methyl-14β-hydroxy-17β-((5-(3-aminopropyl)-isoxazol-3-yl)-ethyl)androstane] |  | 16%* | 2.980 ± 0.441 (n = 4) μmol/min/mg prot |  |  | 3.3 | 15% | 2.94 ± 0.306 (n = 3) μmol/min/mg prot
7 | C[C@]12CC[C@H](O)C[C@H]1CCC1C2CC[C@]2(C)[C@@H](CCc3cc(CCN)on3)CC[C@]12O (stereo partly shown) [CVie 109] |  | 14% | 2.859 ± 0.504 (n = 4) μmol/min/mg prot | 15 | 2.889 ± 0.305 (n = 4) μmol/min/mg prot | 1 |  | 
8 | C[C@]12CC[C@H](O)C[C@H]1CCC1C2CC[C@]2(C)[C@@H](/C=C/c3cc(CN)on3)CC[C@]12O (stereo partly shown) [CVie 110] | 0.33 | 18%* | 2.903 ± 0.188 (n = 3) μmol/min/mg prot |  |  |  | 19% | 2.924 ± 0.549 (n = 3) μmol/min/mg prot
9 | C[C@]12CC[C@H](O)C[C@H]1CC[C@@H]1[C@@H]2C[C@@H](O)[C@]2(C)[C@@H](C3=CC(=O)OC3)CC[C@]12O [DIGOXIGENIN, Digoxigenin, reference compound] | 0.23 |  |  |  |  |  |  | 
